# Experimental data published in patent US6723753B2, “Substituted n-benzyl-n-phenyl aminoalcohol compounds useful for inhibiting cholesteryl ester transfer protein activity” (Pharmacia Corporation, priority 2002, dated 2004).
# Target: T1, CETP (Homo sapiens, UniProt P11597)
# T1 sequence (P11597 18-493): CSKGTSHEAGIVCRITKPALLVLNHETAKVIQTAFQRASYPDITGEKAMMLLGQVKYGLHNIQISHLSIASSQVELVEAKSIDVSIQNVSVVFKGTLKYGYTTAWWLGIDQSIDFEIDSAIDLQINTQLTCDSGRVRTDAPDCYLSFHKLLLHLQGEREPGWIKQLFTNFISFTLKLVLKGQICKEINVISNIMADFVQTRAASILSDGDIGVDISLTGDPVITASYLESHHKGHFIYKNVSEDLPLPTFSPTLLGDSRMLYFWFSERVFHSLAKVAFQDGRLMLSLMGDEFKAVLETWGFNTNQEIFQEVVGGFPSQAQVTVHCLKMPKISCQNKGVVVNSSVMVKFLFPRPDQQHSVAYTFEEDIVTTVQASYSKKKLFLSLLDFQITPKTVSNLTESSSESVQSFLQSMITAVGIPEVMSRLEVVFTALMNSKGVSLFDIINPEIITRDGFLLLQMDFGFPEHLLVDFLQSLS
# Assay: Assay of CETP Inhibition using Purified Components (Reconstituted Buffer Assay)
# Type: biochemical
# Set-up: made in house; host or cells: CHO cells (serum-free conditioned medium)
# Conditions: IC50, Inhibition of CETP activity in reconstituted buffer assay; transfer of [3H]CE from HDL to LDL
# Description: Assay of CETP Inhibition using Purified Components (Reconstituted Buffer Assay)
# The ability of compounds to inhibit CETP activity was assessed using an in vitro assay that measured the rate of transfer of radiolabeled cholesteryl ester ([^3H]CE) from HDL donor particles to LDL acceptor particles. Details of the assay are provided by Glenn, K. C. et al. (Glenn and Melton, “Quantification of Cholesteryl Ester Transfer Protein (CETP): A) CETP Activity and B) Immunochemical Assay of CETP Protein,” Meth. Enzymol., 263, 339-351 (1996)). Human recombinant CETP can be obtained from the serum-free conditioned medium of CHO cells transfected with a cDNA for CETP and purified as described by Wang, S. et al. (J. Biol. Chem. 267, 17487-17490 (1992)). To measure CETP activity, [^3H]CE-labeled-HDL, LDL, CETP and assay buffer (50 mM tris(hydroxymethyl)aminomethane, pH 7.4; 150 mM sodium chloride; 2 mM ethylenediamine-tetraacetic acid (EDTA); 1% bovine serum albumin) were incubated in a final volume of 200 μL, for 2 hours at 37° C. in 96 well plates. […] The inhibitors were then diluted 1:1 with CETP in assay buffer, and then 25 μL of that solution was mixed with 175 μL of lipoprotein pool for assay. Following incubation, LDL was differentially precipitated by the addition of 50 μL of 1% (w/v) dextran sulfate/0.5 M magnesium chloride, mixed by vortex, and incubated at room temperature for 10 minutes. A potion of the solution (200 μL) was transferred to a filter plate (Millipore). After filtration, the radioactivity present in the precipitated LDL was measured by liquid scintillation counting.
# This value was defined as the IC50.
# Examples of IC50 values determined by these methods are specified in Table 9.
row,SMILES,IC50 [µM]
1,OC(CN(Cc1cccc(-c2ccncc2)c1)c1cccc(Oc2ccccc2)c1)C(F)(F)F (stereo not shown) [Example 591],6.2

# Same assay, conditions: Inhibition of CETP activity in reconstituted buffer assay; transfer of [3H]CE from HDL to LDL; read-out: IC50
row,SMILES,IC50 [µM]
1,N#Cc1ccc(CN(CC(O)C(F)(F)F)c2cccc(Oc3ccccc3)c2)cc1 (stereo not shown) [Example 146],10
2,CCN(c1ccc(OC)cc1)c1cccc(N(Cc2cccc(OC(F)(F)C(F)F)c2)CC(O)C(F)(F)F)c1 (stereo not shown) [Example 319],4.7
3,OC(CN(Cc1cccc(OC(F)(F)C(F)F)c1)c1cccc(OCc2cc(F)cc(F)c2F)c1)C(F)(F)F (stereo not shown) [Example 408],0.75
4,OC(CN(Cc1cccc(OC(F)(F)C(F)F)c1)c1cccc(Oc2cc(F)cc(F)c2F)c1)C(F)(F)F (stereo not shown) [Example 225],0.37
5,OC(CN(Cc1cccc(OC(F)(F)C(F)F)c1)c1cccc(OCc2ccc(Cl)cc2)c1)C(F)(F)F (stereo not shown) [Example 424],0.78
6,N#Cc1ncccc1Oc1cccc(N(Cc2cccc(OC(F)(F)C(F)F)c2)CC(O)C(F)(F)F)c1 (stereo not shown) [Example 441],1.2
7,OC(CN(Cc1cccc(Oc2cccc(C(F)(F)F)c2)c1)c1ccc(C(F)(F)F)cc1)C(F)(F)F (stereo not shown) [Example 110],60
8,COc1ccc(CN(CC(O)C(F)(F)F)c2cccc(OC(F)(F)F)c2)cc1 (stereo not shown) [Example 122],8
9,OC(CN(Cc1ccc(Cl)cc1)Cc1cccc(C(F)(F)F)c1)C(F)(F)F (stereo not shown) [compound 186],15
10,N#Cc1ccc(-c2ccc(N(Cc3cccc(OC(F)(F)F)c3)CC(O)C(F)(F)F)cc2)cc1 (stereo not shown) [Example 167],2
11,"OC(CN(Cc1cccc(C(F)(F)F)c1)c1ccc(Br)c(C(F)(F)F)c1)C(F)(F)F (stereo not shown) [Example 625, 3-[4-bromo-3-(trifluoromethyl)phenyl[[3-(trifluoromethyl)-phenyl]methyl]amino]-1,1,1-trifluoro-2-propanol]",8.3
12,OC(CN(Cc1cccc(OC(F)(F)C(F)F)c1)c1cccc(-c2ccc(Cl)cc2)c1)C(F)(F)F (stereo not shown) [Example 565],1.5
13,OC(CN(Cc1cccc(OC(F)(F)C(F)F)c1)c1cccc(I)c1)C(F)(F)F (stereo not shown) [Example 44],2.7
14,OC(CN(Cc1ccc2c(c1)OCCO2)c1cccc(Oc2ccccc2)c1)C(F)(F)F (stereo not shown) [Example 137],20
15,N#Cc1cccc(COc2cccc(N(Cc3cccc(OC(F)(F)C(F)F)c3)CC(O)C(F)(F)F)c2)c1 (stereo not shown) [Example 383],2.3
16,OC(CN(Cc1cccc(OC(F)(F)C(F)F)c1)c1cccc(Nc2cccc(C(F)(F)F)c2)c1)C(F)(F)F (stereo not shown) [Example 310],6.6
17,OC(CN(Cc1cccc(OC(F)(F)C(F)F)c1)c1cccc(OCc2ccc(-c3ccccc3)cc2)c1)C(F)(F)F (stereo not shown) [Example 414],4.6
18,OC(CN(Cc1cccc(OC(F)(F)C(F)F)c1)c1cccc(Oc2cc(F)ccn2)c1)C(F)(F)F (stereo not shown) [Example 443],> 50
19,OC(CN(Cc1cccc(Oc2ccccc2)c1)c1cccc(OC(F)(F)F)c1)C(F)(F)F (stereo not shown) [Example 82],8
20,OC(CN(Cc1cccc(OC(F)(F)C(F)F)c1)c1cccc(OCc2ccc(SC(F)(F)F)cc2)c1)C(F)(F)F (stereo not shown) [Example 409],0.61
21,Cc1cccc(CN(Cc2ccc(F)cc2)CC(O)C(F)(F)F)c1 (stereo not shown) [compound 182],> 100
22,"OC(CN(Cc1cccc(C2CCCO2)c1)c1cccc(Oc2ccccc2)c1)C(F)(F)F (stereo not shown) [Example 608, 3-[(3-phenoxyphenyl)[[3-(tetrahydro-2-furanyl)phenyl]methyl]amino]-1,1,1-trifluoro-2-propanol]",2.3
23,OC(CN(Cc1cccc(Oc2cccc(C(F)(F)F)c2)c1)c1cccc(C(F)(F)F)c1)C(F)(F)F (stereo not shown) [Example 108],60
24,CCc1ccc(COc2cccc(N(Cc3cccc(OC(F)(F)C(F)F)c3)CC(O)C(F)(F)F)c2)cc1 (stereo not shown) [Example 415],0.29
25,OC(CN(Cc1cccc(OC(F)(F)C(F)F)c1)c1cccc(Oc2ccc(C3CCCC3)cc2)c1)C(F)(F)F (stereo not shown) [Example 257],2.2
26,OC(CN(Cc1cccc(OC(F)(F)C(F)F)c1)c1cccc(Oc2ccc(F)c(F)c2F)c1)C(F)(F)F (stereo not shown) [Example 237],0.35
27,OC(CN(Cc1cccc(OC(F)(F)C(F)F)c1)c1cccc(Nc2ccc(C(F)(F)F)cc2)c1)C(F)(F)F (stereo not shown) [Example 295],17
28,O=S(=O)(c1cccc(N(Cc2cccc(OC(F)(F)C(F)F)c2)CC(O)C(F)(F)F)c1)C1CCNCC1 (stereo not shown) [Example 484],> 50
29,O=[N+]([O-])c1cc(Cl)ccc1CN(CC(O)C(F)(F)F)c1cccc(Oc2ccccc2)c1 (stereo not shown) [Example 684],> 100

# Second part, the compound after the results:
row,IC50 [µM],SMILES
1,2.2,COC(=O)COc1cccc(N(Cc2cccc(OC(F)(F)C(F)F)c2)CC(O)C(F)(F)F)c1 (stereo not shown) [Example 490]
2,18,CC(C)(C)c1ccc(-c2cccc(N(Cc3cccc(OC(F)(F)C(F)F)c3)CC(O)C(F)(F)F)c2)cc1 (stereo not shown) [Example 574]
3,6.8,"OC(CN(Cc1cccc(OC(F)(F)F)c1)c1nc(Cl)nc(Oc2ccc(F)cc2)n1)C(F)(F)F (stereo not shown) [Example 632, N-[2-chloro-6-(p-fluorophenoxy)-1,3,5-triazin-4-yl]-3-[[[3-(trifluoromethoxy)phenyl]methyl]amino]-1,1,1-trifluoro-2-propanol]"
4,> 100,OC(CN(Cc1cc(C(F)(F)F)cc(C(F)(F)F)c1)c1cccc(F)c1)C(F)(F)F (stereo not shown) [Example 677]
5,> 100,Cc1ccc(CN(CC(O)C(F)(F)F)c2cc(F)cc(F)c2)cc1 (stereo not shown) [Example 29]
6,0.31,"OC(CN(Cc1cccc(C2CCCC2)c1)c1cccc(Oc2ccccc2)c1)C(F)(F)F (stereo not shown) [Example 607, 3-[(3-phenoxyphenyl)[[3-cyclopentylphenyl]methyl]amino]-1,1,1-trifluoro-2-propanol]"
7,25,CCOc1cc(CN(CC(O)C(F)(F)F)c2cccc(OC(F)(F)F)c2)ccc1OC (stereo not shown) [Example 117]
8,17,"FC(CN(Cc1cccc(OC(F)(F)C(F)F)c1)c1cccc(Oc2ccccc2)c1)C(F)(F)F (stereo not shown) [Example 1669, N-(3-phenoxyphenyl)-N-(3,3,3,2-tetrafluoropropyl)-3-(1,1,2,2-tetrafluoroethoxy)benzenemethanamine]"
9,> 100,CC(c1cccc(OC(F)(F)F)c1)N(CC(O)C(F)(F)F)c1cccc(Oc2ccccc2)c1 (stereo not shown) [Example 206]
10,60,COc1cccc(N(Cc2ccc(C)cc2)CC(O)C(F)(F)F)c1 (stereo not shown) [Example 4]
11,30,"CC(CCc1cccc(OC(F)(F)F)c1)N(CC(O)C(F)(F)F)c1cccc(Oc2ccccc2)c1 (stereo not shown) [Example 626, 3-[[1-methyl-3-[3-(trifluoromethoxy)phenyl]propyl](3-phenoxyphenyl)amino]-1,1,1-trifluoro-2-propanol]"
12,> 50,"O=C(Nc1cccc(N(Cc2cccc(OC(F)(F)C(F)F)c2)CC(O)C(F)(F)F)c1)c1ccc(F)cc1 (stereo not shown) [Example 535, 4-fluoro-N-[3-[[[3-(1,1,2,2-tetrafluoroethoxy)phenyl]methyl](3,3,3-trifluoro-2-hydroxypropyl)amino]phenyl]benzamide]"
13,20,COc1ccc(N(Cc2cccc(C(F)(F)F)c2)CC(O)C(F)(F)F)cc1 (stereo not shown) [Example 51]
14,18,O=[N+]([O-])c1cccc(CN(Cc2cccc(OC(F)(F)F)c2)CC(O)C(F)(F)F)c1 (stereo not shown) [compound 197]
15,> 100,COc1ccccc1N(Cc1cccc(C)c1)CC(O)C(F)(F)F (stereo not shown) [Example 668]
16,> 100,CSc1ccccc1NC(=O)N(CC(O)C(F)(F)F)c1cccc(OC(F)(F)F)c1 (stereo not shown) [Example 368]
17,1.6,Cc1ccc(Cc2cccc(N(Cc3cccc(OC(F)(F)C(F)F)c3)CC(O)C(F)(F)F)c2)cc1 (stereo not shown) [Example 517]
18,2.3,O=[N+]([O-])c1cccc(COc2cccc(N(Cc3cccc(OC(F)(F)C(F)F)c3)CC(O)C(F)(F)F)c2)c1 (stereo not shown) [Example 382]
19,40,O=[N+]([O-])c1cccc(CN(CC(O)C(F)(F)F)c2cccc(OC(F)(F)F)c2)c1 (stereo not shown) [Example 335]
20,0.58,COc1cccc(Cc2cccc(N(Cc3cccc(OC(F)(F)C(F)F)c3)CC(O)C(F)(F)F)c2)c1 (stereo not shown) [Example 527]
21,40,OC(CN(Cc1ccc(-c2ccccc2)cc1)Cc1cccc(OC(F)(F)F)c1)C(F)(F)F (stereo not shown) [compound 196]
22,11,O=C(c1cccc(N(Cc2cccc(OC(F)(F)C(F)F)c2)CC(O)C(F)(F)F)c1)N1CCCC1 (stereo not shown) [Example 472]
